In data set [1] the test system is IL-10 release from U937 cells. The experiment in a line: IL-10 release from U937 cells (ELISA). Type of data set: cell-based, human. As to conditions: for stimulation of IL-10 in the presence of a type IV selective PDE inhibitor: with vs without type IV selective PDE inhibitor (rolipram). How it is done: U 937 cells were grown in RPMI (PAA Laboratories) medium with 10% fetal calf serum added (PAA Laboratories). 2×10^6 cells per flask were treated with prostaglandin E2 at 10^−6 Molar or with Rolipram (4×10^−6) for 24 hours. Medium was removed at […] and analysed by ELISA. A capture antibody (Pharmingen) was coated onto 96 well plates and culture medium was added each well. A standard curve was created with recombinant IL-10 protein. After incubation and washing, a biotin labelled monoclonal antibody (Pharmingen) was added and following incubation and washing, peroxidase labelled streptavidin was added. After washing a tetramethyl benzidine substrate was added and colour developed in proportion to IL-10 in the original sample/standard. Colour was read using a plate photometer (Labsystems, Multiskan). Mean concentrations (N=3) in controls with no lipopolysaccharide (LPS) were 38.2 pg/ml and in the presence of LPS (100 nM) they were 43.9 […].
The effect of PGE1, PGE2, 19 hydroxy PGE1 and 19 hydroxy PGE2 on the stimulation of IL-10 in the presence and absence of rolipram was investigated as described above in Example 2. IL-10 levels were measured using an ELISA assay (R&D Ltd, Oxford). Measurements were taken in accordance with the manufacturer's instructions.

Data set [2] deals with phosphodiesterase IV-b mRNA. The experiment in a line: Phosphodiesterase IV b mRNA in U937 cells (Taqman). Type of data set: cell-based, human. As to conditions: four hours of incubation; PGE 1×10^-6, 19-hydroxy PGE2 5×10^-6; without inhibitor. How it is done: After the incubation (20 hours), cells were pelleted and the mRNA was extracted with Tri-reagent (Sigma, Poole, UK). Total RNA was obtained by addition of chloroform and subsequent isopropanol precipitation. RNA was reverse transcribed with reverse transcriptase (Applied Biosystems) and random hexamers (Applied Biosystems). Probes and primers for IL-10 and IL-12 (p35) were designed using Primer Express (Applied Biosystems) and were as follows:
Template was amplified in a Taqman 7700 machine for 40 cycles using FAM/TAMRA dyes on the probe. The Applied Biosystems kit was used to amplify and detect ribosomal (18S)RNA (using VIC/TAMRA dyes) as an internal control in the same reaction tube. After 40 cycles the Ct (related to cycle number at which signal appears) for the FAM and the 18S (VIC) were recorded and […] relative quantitation was achieved using the formula 2^−ΔΔct where Δ refers to the difference between the FAM and VIC signal related to an standard comparator included in each run.
The mRNA for phosphodiesterase IV-b was measured as described in Example 2 above mRNA was extracted after four hours of incubation. The concentration of the PGE was 1×10^−6 and that of the 19-hydroxy PGE2 was 5×10^−6. The following primers and Taqman probe were used for quantitation of PDE IV b mRNA.
Background: Real-time PCR tracks product formation cycle by cycle.

The conditions of data set [3]: in vivo; cited from earlier work.
Data set [4] deals with type IV PDE. As to conditions: cited from earlier work; for IC50: type IV PDE inhibitor.

The values that follow come from US20040214839A1, “Therapeutic methods” (priority 2001, published 2004).

The term IC50 denotes the concentration that inhibits the measured activity by half.

With 19-hydroxy PGE2, the “concentration necessary to achieve similar effects to PGE” value in data set [1] (compared with PGE, Figures and Examples) was “higher concentration”. In data set [1], the “stimulation of IL-10 in the presence of a type IV selective PDE inhibitor” value was “increased strikingly”. Also, in data set [2], the “PDE activity (phosphodiesterase IV b mRNA) after prostaglandin application” value is “increase”.

Take `CCCCC(C)(O)CC=C[C@H]1[C@H](O)CC(=O)[C@@H]1CCCCCCC(=O)OC` (mixture of isomers) [misoprostol, (±) methyl 11α, 16-dihydroxy-16-methyl-9-oxoprost-13-enoate]: the hypotension result in data set [3] is recorded as “does not cause hypotension”. With `COc1ccc(C2CNC(=O)C2)cc1OC1CCCC1` (stereo not drawn) [rolipram, 4-[3-cyclopentyloxy 4-methoxyphenyl]-2-pyrrolidinone], in data set [4], the IC50 is 800 nM. Regarding `CCCCC[C@H](O)/C=C/[C@H]1[C@H](O)CC(=O)[C@@H]1C/C=C\CCCC(=O)O` [PGE, prostaglandin E2], the “stimulation of IL-10 in the presence of a type IV selective PDE inhibitor” value in data set [1] is “increased strikingly”. Moreover, the “PDE activity (phosphodiesterase IV b mRNA) after prostaglandin application” value in data set [2] was “increase”. For the compound `Cn1c(=O)c2[nH]cnc2n(C)c1=O` [theophylline], in data set [4] (non-selective inhibitor compared with rolipram), the “times less effective than rolipram” value is 30 times. Take `CCCCOc1cc(CC2CNC(=O)N2)ccc1OC` (stereo not drawn) [Ro-20-1724, 4-[3-butoxy-4-methoxybenzyl]-2-imidazolidinone]: in data set [4], the IC50 is 2000 nM.
